Measured values taken from patent CN109134447A, “一种富马酸卢帕替芬的杂质b及其制备方法和检测方法” (FUJIAN MINDONG REJUVENATION PHARMACEUTICAL Co Ltd, priority 2018, dated 2019).

Test: Stability test of the reference solution of the compound of formula I (HPLC peak area)
Type: physicochemical
Details: reference solution in 50% aqueous methanol (25 mg in 25 ml); injected at 0, 2, 4, 8, 12, 24 h after preparation, 20 μl each; within 24 hours

Cc1cncc(C[N+]2(C)CCC(=C3c4ccccc4CC(=O)c4sccc43)CC2)c1.[Br-] (stereo not shown) [式Ⅰ所示化合物]
stability (peak area by HPLC): 稳定
